Results taken from patent publication US20250282742A1, “BENZOFURAN DERIVATIVES FOR TARGETING AUTOPHAGY” (Automera PTE. LTD, priority 2024, published 2025).

test system: p62 puncta in HeLa cells; assay: p62 puncta assay (immunocytochemistry and imaging, EVOS M7000 or Operetta CLS); format: cell-based; conditions: Homo sapiens, fold change in p62 puncta levels relative to DMSO control, 24 hr
Method: HeLa cells were seeded in coated 96-well plates (10,000 cells) and allowed to adhere overnight. After 24 hours of treatment with either vehicle (DMSO) or test compounds, the media was discarded, and cells were rinsed with ice-cold 1×PBS before fixation by 4% formaldehyde or paraformaldehyde for 20 min. Cells were then washed with 1×PBS and permeabilized with 0.1% Triton X-100 in PBS for 20 min and blocked with Blocking Buffer in PBS for 1 hour. The cells were incubated thereafter for 1 hour with anti-p62 primary antibody in Blocking Buffer, followed by incubation with secondary antibody for 1 hour. DAPI dye was used to visualize nuclei of fixed cells. The blocking buffer used were 5% Fetal Bovine Serum (FBS, ThermoFIsher Scientific, 10270106) and Li-cor Intercept (PBS) Blocking Buffer (Li-cor, 927-70001). The primary antibody used was mouse anti-p62 primary antibody (Novus Biologicals, H00008878-MO1). The secondary antibodies used were goat anti-mouse Alexa Fluor Plus 488 secondary antibody (Invitrogen, GOXMS) and goat anti-mouse Alexa Fluor 488 secondary antibody (Invitrogen, A-11029). The DAPI dyes used were DAPI dye (Invitrogen, 62248) and DAPI dye (Invitrogen, D1306).
For the EVOS M7000 System, cells were imaged on the EVOS M7000 microscope using a 20× air objective (Nikon, N.A 0.45). DAPI and p62 channels were illuminated with LED light cubes using integrated hard-coated filter sets for DAPI (357/447 nm) and GFP (470/525 nm) respectively. Images were analysed for p62 puncta count on the Celeste 6.0 software.
For the Operetta CLS System, cells were imaged on the Operetta CLS using a 63× water objective on the DAPI and Alexa 488 channels. Images were analysed for p62 puncta count on the Harmony 5.1 software.
HeLa cells were treated with compounds for 24 hours to evaluate the effect of these compounds on p62 puncta activity. The resulting changes in levels of p62 puncta were assessed by imaging, either on the EVOS M7000 or Operetta CLS systems as described in experimental procedures. The fold change of p62 puncta levels induced by compound treatment relative to vehicle control (DMSO) was determined and summarized in Table 10.

Compound | fold induction at 5 µM
CC(C)(C)OC(=O)N1CCC(COCCOCCNCc2ccc3cc(CCc4ccc(F)cc4)oc3c2)CC1 [compound 165] | > 2
CC(C)(C)OC(=O)COCCNCc1ccc2cc(CCc3ccc(F)cc3)oc2c1 [compound 131] | > 2
CC(C)(C)OC(=O)Nc1ccc(COCCNCc2ccc3cc(CCc4ccc(F)cc4)oc3c2)cc1 [compound 151] | > 2
C#CCCCCCCCCOCCNCc1ccc2cc(CCc3ccc(F)cc3)oc2c1 [compound 161] | > 2
CC(C)NCCOCc1ccc2cc(-c3ccccc3)oc2c1 [compound 77] | > 2
CNCCOCCOCCNCc1ccc2cc(CCc3ccc(F)cc3)oc2c1 [compound 86] | > 2
CC(C)(C)OC(=O)CCCOCCNCc1ccc2cc(CCc3ccc(F)cc3)oc2c1 [compound 145] | < 2
CC(C)(C)OC(=O)NC[C@H]1CC[C@H](COCCNCc2ccc3cc(CCc4ccc(F)cc4)oc3c2)CC1 [compound 167] | > 2
CC(C)(C)OC(=O)Nc1cccc(COCCNCc2ccc3cc(CCc4ccc(F)cc4)oc3c2)c1 [compound 153] | > 2
COC(=O)CCOCCOCCOCCNCc1ccc2cc(CCc3ccc(F)cc3)oc2c1 [compound 160] | < 2
CC(C)NCC(O)COc1ccc2cc(-c3ccccc3)oc2c1 (stereo not drawn) [compound 78] | > 2
CC(C)(C)OC(=O)NCC1CC(COCCNCc2ccc3cc(CCc4ccc(F)cc4)oc3c2)C1 (stereo not drawn) [compound 163] | > 2
C#CCCOCCOCCOCCNCc1ccc2cc(Cc3ccc(Cl)cc3)oc2c1 [compound 96] | > 2
OCCNCc1ccc2nc(-c3ccccc3)sc2c1 [compound 113] | > 2
CC(C)(C)OC(=O)CCCCCCCCOCCNCc1ccc2cc(CCc3ccc(F)cc3)oc2c1 [compound 139] | < 2
C#CCCOCCNCc1ccc2cc(CCc3ccc(F)cc3)oc2c1 [compound 133] | > 2
CC(C)(C)OC(=O)N1CCC(OCCOCCNCc2ccc3cc(CCc4ccc(F)cc4)oc3c2)CC1 [compound 90] | > 2
OCCNCc1ccc2cc(-c3ccccc3Cl)oc2c1 [compound 72] | > 2
C#CCCOCCOCCOCCNCc1ccc2cc(CCc3ccc(F)cc3)oc2c1 [compound 84] | > 2
OCCNCc1ccc2cc(-c3cccc(Cl)c3)oc2c1 [compound 73] | > 2
CC(C)NCCOCc1ccc2cc(CCc3ccc(F)cc3)oc2c1 [compound 79] | > 2
COCCNCc1ccc2cc(-c3ccccc3)oc2c1 [compound 105] | > 2

Compound | fold induction at 5 µM
CC(C)(C)OC(=O)N[C@H]1CC[C@H](COCCNCc2ccc3cc(CCc4ccc(F)cc4)oc3c2)CC1 [compound 168] | > 2
CC(C)(C)OC(=O)NC1(COCCNCc2ccc3cc(CCc4ccc(F)cc4)oc3c2)CC1 [compound 156] | > 2
CCOC(=O)C1CCN(C(=O)COCCNCc2ccc3cc(CCc4ccc(F)cc4)oc3c2)CC1 [compound 142] | > 2
C#CCCCCCOCCNCc1ccc2cc(CCc3ccc(F)cc3)oc2c1 [compound 138] | > 2
CC(C)(C)OC(=O)CCCCCOCCNCc1ccc2cc(CCc3ccc(F)cc3)oc2c1 [compound 140] | < 2
CC(C)(C)OC(=O)NCCOCCNCc1ccc2cc(CCc3ccc(F)cc3)oc2c1 [compound 122] | > 2
COC1CC(NCc2ccc3cc(-c4ccccc4)oc3c2)C1 (stereo not drawn) [compound 107] | < 2
CC(C)(C)OC(=O)N1CCC(COCCNCc2ccc3cc(CCc4ccc(F)cc4)oc3c2)CC1 [compound 123] | > 2
CC(C)(C)OC(=O)NC1CCN(CCOCCNCc2ccc3cc(CCc4ccc(F)cc4)oc3c2)CC1 [compound 166] | > 2
CO[C@@H]1CCCN(Cc2ccc3cc(-c4ccccc4)oc3c2)C1 [compound 109] | < 2
COC(=O)c1ccc(N2CCC(COCCNCc3ccc4cc(CCc5ccc(F)cc5)oc4c3)CC2)cc1 [compound 162] | > 2
CC(C)(C)OC(=O)COCCCOCCNCc1ccc2cc(CCc3ccc(F)cc3)oc2c1 [compound 128] | > 2
COC1CN(Cc2ccc3cc(-c4cccnc4)oc3c2)C1 [compound 112] | < 2
CC(C)(C)OC(=O)N1CCN(CCOCCNCc2ccc3cc(CCc4ccc(F)cc4)oc3c2)CC1 [compound 147] | > 2
CC(C)(C)OC(=O)CCOCCNCc1ccc2cc(CCc3ccc(F)cc3)oc2c1 [compound 132] | > 2
COC1CN(Cc2ccc3cc(-c4ccccc4)oc3c2)C1 [compound 108] | > 2
COC(=O)C1(COCCNCc2ccc3cc(CCc4ccc(F)cc4)oc3c2)COC1 [compound 146] | < 2
CC(C)(C)OC(=O)NCCCOCCNCc1ccc2cc(CCc3ccc(F)cc3)oc2c1 [compound 154] | > 2
CC(C)(C)OC(=O)N1CCC(CCOCCNCc2ccc3cc(CCc4ccc(F)cc4)oc3c2)CC1 [compound 152] | > 2
OCCNCc1ccc2cc(-c3ccc(Cl)cc3)oc2c1 [compound 74] | > 2
CC(C)NCC(O)COc1ccc2cc(CCc3ccc(F)cc3)oc2c1 (stereo not drawn) [compound 80] | > 2
CC(C)(C)OC(=O)c1ccc(COCCNCc2ccc3cc(CCc4ccc(F)cc4)oc3c2)cc1 [compound 134] | > 2

Compound | fold induction at 5 µM
C#CCCCCCCOCCNCc1ccc2cc(CCc3ccc(F)cc3)oc2c1 [compound 141] | > 2
COC(=O)CCOCCOCCNCc1ccc2cc(-c3ccccc3)oc2c1 [compound 95, methyl 3-(2-(2-(((2-phenylbenzofuran-6-yl)methyl)amino)ethoxy)ethoxy)propanoate] | > 2
CNCCOCCOCCOCCNCc1ccc2cc(CCc3ccc(F)cc3)oc2c1 [compound 87] | > 2
COC(=O)c1ccc(OCCOCCNCc2ccc3cc(CCc4ccc(F)cc4)oc3c2)cc1 [compound 159] | > 2
CO[C@H]1CCCN(Cc2ccc3cc(-c4ccccc4)oc3c2)C1 [compound 110] | < 2
C#CCCOCCOCCOCCNCc1ccc2cc(-c3ccccc3)oc2c1 [compound 94] | > 2
C#CCOCCOCCNCc1ccc2cc(CCc3ccc(F)cc3)oc2c1 [compound 129] | > 2
CC(C)(C)OC(=O)NCCOCCOCCOCCNCc1ccc2cc(CCc3ccc(F)cc3)oc2c1 [compound 125] | > 2
CC(C)(C)OC(=O)N1CCC(OCCNCc2ccc3cc(CCc4ccc(F)cc4)oc3c2)C1 (stereo not drawn) [compound 157] | > 2
Fc1ccc(CCc2cc3ccc(CNCCOCCCCl)cc3o2)cc1 [compound 136] | > 2
C#CCCOCCOCCNCC(O)COc1ccc2cc(Cc3ccccc3)oc2c1 (stereo not drawn) [compound 98, 1-((2-benzylbenzofuran-6-yl)oxy)-3-((2-(2-(but-3-yn-1-yloxy)ethoxy)ethyl)amino)propan-2-ol] | > 2
CC(C)(C)OC(=O)NCCCCCCCCOCCNCc1ccc2cc(CCc3ccc(F)cc3)oc2c1 [compound 149] | > 2
CNCCCOCCOCCNCc1ccc2cc(-c3ccccc3)oc2c1 [compound 120] | > 2
C#Cc1ccc(COCCNCc2ccc3cc(CCc4ccc(F)cc4)oc3c2)cc1 [compound 164] | > 2
COc1ccc(-c2cc3ccc(CNCCO)cc3o2)cc1 [compound 76] | > 2
CC(C)(C)OC(=O)N1CC(OCCNCc2ccc3cc(CCc4ccc(F)cc4)oc3c2)C1 [compound 158] | > 2
CC(C)(C)OC(=O)N1CC(COCCNCc2ccc3cc(CCc4ccc(F)cc4)oc3c2)C1 [compound 155] | > 2
COC(=O)CCOCCNCC(O)COc1ccc2cc(Cc3ccccc3)oc2c1 (stereo not drawn) [compound 99] | < 2
OCCNCc1ccc2nc(-c3ccccc3)oc2c1 [compound 106] | > 2
CC(C)(C)OC(=O)NCCOCCOCCOCCNCc1ccc2cc(Cc3ccccc3)oc2c1 [compound 82, tert-butyl (1-(2-benzylbenzofuran-6-yl)-5,8,11-trioxa-2-azatridecan-13-yl)carbamate] | < 2
CC(C)(C)OC(=O)CCOCCOCCNCc1ccc2cc(CCc3ccc(F)cc3)oc2c1 [compound 127] | > 2
CC(C)(C)OC(=O)NCCCCCOCCNCc1ccc2cc(CCc3ccc(F)cc3)oc2c1 [compound 148] | < 2
